Experimental data: patent publication US8420653B2, “Pyrimidine compounds and their uses” (Orchid Chemicals & Pharmaceuticals Limited, priority 2008, dated 2013)
One block for each compound: values may come before it.

Key:
[1] = test system: T1, PDE4; experiment: PDE4 activity (source human U937 cells); type: biochemical; conditions: 10 μM, source human U937 cells
T1 construct: other: 10 μM, source human U937 cells; PDE4 at 10 μm
Method: PDE4 inhibition was measured by following a literature assay procedure (Cortizo J et al., Br J. Pharmacol., 1993, 108: 562-568. The assay method involves the following conditions.
Substrate: 1.01 μM [^3H] camp+camp
Pre-Incubation Time/Temperature: 15 minutes at 25° C.
Incubation Time/Temperature. 20 minutes at 25° C.
Incubation buffer: 50 mM Tris-HCl, pH 7.5, 5 mM MgCl2
Quantitation method: Quantitation of [^3H] Adenosine
Significance criteria: ≧50% of max stimulation or inhibition

[2] = test system: purified recombinant COX-1; experiment: COX-1 enzyme based assay; type: biochemical
Method: COX-1 and COX-2 enzyme based assays were carried out to check the inhibitory potential of the test compounds on the production of prostaglandin by purified recombinant COX-1/COX-2 enzyme (Proc. Nat. Acad. Sci. USA, 88, 2692-2696, 1991; J. Clin. Immunoassay 15, 116-120, 1992). In this assay, the potential of the test compound to inhibit the production of prostaglandin either by COX-1 or COX-2 from arachidonic acid (substrate) was measured. This was an enzyme based in-vitro assay to evaluate selective COX inhibition with good reproducibility.
Arachidonic acid was converted to PGH2 (Intermediate product) by COX1/COX-2 in the presence or absence of the test compound. The reaction was carried out at 37° C. and after 2 minutes it was stopped by adding 1M HCl. Intermediate product PGH2 was converted to a stable prostanoid product PGF2α by SnCl2 reduction. The amount of PGF2α produced in the reaction was inversely proportional to the COX inhibitory potential of the test compound. The prostanoid product was quantified via enzyme immunoassay (EIA) using a broadly specific antibody that binds to all the major forms of prostaglandin, using Cayman ELISA kit as per the procedure outlined by the manufacturer (Cayman Chemicals, Ann Arbor, USA).

[3] = test system: ulcer formation; experiment: Ulcerogenic potential; type: in vivo, male wistar; conditions: oral, 4 hours after administration
Method: Ulcerogenic Potential In order to evaluate the compound's role on the ulcer formation, the animals were sacrificed and the stomach was taken out and flushed with 1% formalin. Animals (male wistar 200 g) were fasted for 18 hours with free access to water and the test compounds were suspended in 0.5% Tween 80 and 0.25% CMC (carboxymethylcellulose) solution to make a uniform suspension. After 4 hours of oral administration of test compounds, all the animals were sacrificed by cervical dislocation. The stomach was dissected carefully and filled up with a sterile saline solution and embedded in 6% formalin solution. […] The test compound treated groups were compared with the vehicle treated groups. […]

SMILES: Fc1ccc(-c2nc(C(F)(F)F)nc(NC3CC3)c2-c2ccccc2)cc1 [Example 175, N-Cyclopropyl-6-(4-fluorophenyl)-5-phenyl-2-(trifluoromethyl)pyrimidin-4-amine]
PDE4 inhibition at 10 μM (%) [1]: 88%

SMILES: N#CCCN1CCN(c2nc(C(F)(F)F)nc(-c3ccc(F)cc3)c2-c2cccc(S(N)(=O)=O)c2)CC1 [Example 100, 3-{4-[4-(2-cyanoethyl)piperazin-1-yl]-6-(4-fluorophenyl)-2-(trifluoromethyl)pyrimidin-5-yl}benzenesulfonamide]
PDE4 inhibition at 10 μM (%) [1]: 92%

melting point: 165 to 167 °C
SMILES: FC(F)(F)c1nc(-c2ccccc2)c(-c2ccccc2)c(N2CCN(c3ccccn3)CC2)n1 [Example 48, 4,5-diphenyl-6-(4-pyridin-2-yl-piperazin-1-yl)-2-(trifluoromethyl)pyrimidine]

melting point: 228 to 232 °C
SMILES: CS(=O)(=O)c1ccc(-c2nc(C(F)(F)F)nc(N3CCN(Cc4ccncc4)CC3)c2-c2ccccc2)cc1 [Example 46, 4-[4-(Methylsulfonyl)phenyl]-5-phenyl-6-[4-(pyridin-4-ylmethyl)piperazin-1-yl]-2-(trifluoromethyl)pyrimidine]

SMILES: NS(=O)(=O)c1cccc(-c2c(-c3ccccc3)nc(C(F)(F)F)nc2N2CCC(=O)CC2)c1 [Example 179, 3-[6-Phenyl-4-(4-oxopiperidin-1-yl)-2-(trifluoromethyl)pyrimidin-5-yl]benzenesulfonamide]
PDE4 inhibition at 10 μM (%) [1]: 84%

melting point: 230 to 235 °C
SMILES: CC(=O)NS(=O)(=O)c1ccc(-c2c(Cl)nc(C(F)(F)F)nc2-c2ccc(S(C)(=O)=O)cc2)cc1 [Example 17, N-[(4-{4-chloro-6-[4-(methylsulfonyl)phenyl]-2-(trifluoromethyl)pyrimidin-5-yl}phenyl)sulfonyl]acetamide]

SMILES: NS(=O)(=O)c1cccc(-c2nc(C(F)(F)F)nc(-n3ccnc3)c2-c2ccccc2)c1 [Example 167, 3-[4-(1H-imidazol-1-yl)-5-phenyl-2-(trifluoromethyl)pyrimidin-6-yl]benzenesulfonamide]
PDE4 inhibition at 10 μM (%) [1]: 82%

melting point: 240 to 242 °C
SMILES: O=C(NNc1nc(C(F)(F)F)nc(-c2ccncc2)c1-c1ccc(F)cc1)C(F)(F)F [Example 14, 2,2,2-trifluoro-N′-[5-(4-fluorophenyl)-6-pyridin-4-yl-2-(trifluoromethyl)pyrimidin-4-yl]acetohydrazide]

% Inhibition in rEnzyme Assay COX-1 ([2]; 1 μM): 46.29%
% Inhibition in rEnzyme Assay COX-1 ([2]; 10 μM): 56.85%
SMILES: NS(=O)(=O)c1cccc(-c2c(-c3ccc(F)cc3)nc(C(F)(F)F)nc2N2CCN(c3ccccn3)CC2)c1 [Example 53, 3-[4-(4-Fluorophenyl)-6-(4-pyridin-2-ylpiperazin-1-yl)-2-(trifluoromethyl)pyrimidin-5-yl]benzenesulfonamide]

melting point: 204 to 206 °C
SMILES: CS(=O)(=O)c1ccc(-c2nc(C(F)(F)F)nc(OS(=O)(=O)c3cccc4ccccc34)c2-c2ccccc2)cc1 [Example 18, 6-[4-(methylsulfonyl)phenyl]-5-phenyl-2-(trifluoromethyl)pyrimidin-4-yl napthalenesulfonate]

melting point: 168 to 174 °C
SMILES: CS(=O)(=O)c1ccc(-c2nc(C(F)(F)F)nc(N3CCN(Cc4ccc([N+](=O)[O-])s4)CC3)c2-c2ccccc2)cc1 [Example 47, 6-[4-(Methylsulfonyl)phenyl]-4-{4-[(5-nitro-2-thienyl)methyl]piperazin-1-yl}-5-phenyl-2-(trifluoromethyl)pyrimidine]

melting point: 203 to 206 °C
SMILES: CS(=O)(=O)c1ccc(-c2nc(C(F)(F)F)nc(NN)c2-c2ccc(S(=O)(=O)NN)cc2)cc1 [Example 7, 4-{4-hydrazino-6-[4-(methylsulfonyl)phenyl]-2-(trifluoromethyl)pyrimidin-5-yl}benzenesulfonohydrazide]

melting point: 207 to 210 °C
SMILES: CS(=O)(=O)c1ccc(-c2nc(C(F)(F)F)nc(Cl)c2-c2ccc(S(=O)(=O)Cl)cc2)cc1 [Example 3, 4-{4-chloro-6-[4-(methylsulfonyl)phenyl]-2-(trifluoromethyl)pyrimidin-5-yl}benzenesulfonyl chloride]

melting point: 229 to 233 °C
SMILES: CS(=O)(=O)c1ccc(-c2nc(C(F)(F)F)nc(N3CCN(c4ccccn4)CC3)c2-c2ccccc2)cc1 [Example 49, 4-[4-(Methylsulfonyl)phenyl]-5-phenyl-6-(4-pyridin-2-yl-piperazin-1-yl)-2-(trifluoromethyl)pyrimidine]

% Inhibition in rEnzyme Assay COX-1 ([2]; 1 μM): 33.84%
% Inhibition in rEnzyme Assay COX-1 ([2]; 10 μM): 50.41%
SMILES: CNS(=O)(=O)c1ccc(-c2c(N)nc(C(F)(F)F)nc2-c2ccc(S(C)(=O)=O)cc2)cc1 [Example 2, 4-{4-Amino-6-[4-(methylsulfonyl)phenyl]-2-(trifluoromethyl)pyrimidin-5-yl}-N-methylbenzenesulfonamide]

SMILES: NS(=O)(=O)c1cccc(-c2c(-c3ccc(F)cc3)nc(C(F)(F)F)nc2N2CCN(C(=O)C(F)(F)F)CC2)c1 [Example 109, 3-{6-(4-Fluorophenyl)-4-[4-(trifluoroacetyl)piperazin-1-yl]-2-(trifluoromethyl)pyrimidin-5-yl}benzenesulfonamide]
PDE4 inhibition at 10 μM (%) [1]: 90%

% Inhibition in rEnzyme Assay COX-1 ([2]; 1 μM): 8.27%
% Inhibition in rEnzyme Assay COX-1 ([2]; 10 μM): 7.1%
SMILES: NS(=O)(=O)c1cccc(-c2c(-c3ccccc3)nc(C(F)(F)F)nc2N2CCNCC2)c1 [Example 51, 3-[4-Phenyl-6-piperazin-1-yl-2-(trifluoromethyl)pyrimidin-5-yl]benzenesulfonamide]

% Inhibition in rEnzyme Assay COX-1 ([2]; 10 μM): 5.7%
SMILES: NS(=O)(=O)c1cccc(-c2c(-c3ccccc3)nc(C(F)(F)F)nc2N2CCN(c3ncccn3)CC2)c1 [Example 57]

SMILES: CNc1nc(C(F)(F)F)nc(-c2ccc(S(C)(=O)=O)cc2)c1-c1ccc(S(=O)(=O)NC)cc1 [Example 5, 4-{4-(Methylamino)-6-[4-(methylsulfonyl)phenyl]-2-(trifluoromethyl)pyrimidin-5-yl}-N-methylbenzenesulfonamide]
Ulcer incidence at 5 mg/kg [3]: Nil

% Inhibition in rEnzyme Assay COX-1 ([2]; 1 μM): 34.42%
% Inhibition in rEnzyme Assay COX-1 ([2]; 10 μM): 45.53%
SMILES: NS(=O)(=O)c1cccc(-c2c(-c3ccc(F)cc3)nc(C(F)(F)F)nc2N2CCN(c3ncccn3)CC2)c1 [Example 54, 3-[4-(4-Fluorophenyl)-6-(4-pyrimidin-2-ylpiperazin-1-yl)-2-(trifluoromethyl)pyrimidin-5-yl]benzenesulfonamide]

SMILES: NS(=O)(=O)c1cccc(-c2c(-c3ccc(F)cc3)nc(C(F)(F)F)nc2N2CCN(S(=O)(=O)C(F)(F)F)CC2)c1 [Example 77, 5-(3-Aminosulfonylphenyl)-4-(4-fluorophenyl)-2-(trifluoromethyl)-6-{4-[(trifluoromethyl)sulfonyl]piperazin-1-yl}pyrimidine]
PDE4 inhibition at 10 μM (%) [1]: 94%

SMILES: NS(=O)(=O)c1cccc(-c2c(-c3ccccc3)nc(C(F)(F)F)nc2N2CCN(C(=O)C(F)(F)F)CC2)c1 [Example 173, 3-{6-Phenyl-4-[4-(trifluoroacetyl)piperazin-1-yl]-2-(trifluoromethyl)pyrimidin-5-yl}benzenesulfonamide]
PDE4 inhibition at 10 μM (%) [1]: 87%

% Inhibition in rEnzyme Assay COX-1 ([2]; 1 μM): 6.29%
% Inhibition in rEnzyme Assay COX-1 ([2]; 10 μM): 19.24%
SMILES: NS(=O)(=O)c1cccc(-c2c(-c3ccccc3)nc(C(F)(F)F)nc2N2CCN(c3ccc(C(F)(F)F)cn3)CC2)c1 [Example 116, 3-[6-{4-[5-(trifluoromethyl)pyridin-2-yl]piperazin-1-yl}-4-phenyl-2-(trifluoromethyl)pyrimidin-4-yl]benzenesulfonamide]

% Inhibition in rEnzyme Assay COX-1 ([2]; 1 μM): 10.22%
% Inhibition in rEnzyme Assay COX-1 ([2]; 10 μM): 9.59%
SMILES: NS(=O)(=O)c1cccc(-c2c(-c3ccccc3)nc(C(F)(F)F)nc2N2CCN(c3ccccn3)CC2)c1 [Example 58]

melting point: 226 to 230 °C
SMILES: CNS(=O)(=O)c1ccc(-c2c(Cl)nc(C(F)(F)F)nc2-c2ccc(S(C)(=O)=O)cc2)cc1 [Example 4, 4-{4-chloro-6-[4-(methylsulfonyl)phenyl]-2-(trifluoromethyl)pyrimidin-5-yl}-N-methylbenzenesulfonamide]
Ulcer incidence at 5 mg/kg [3]: Nil
